Holding throughout (format): cell-based, human
The subject of one assay is MCF7. The experiment in a line: SRB antiproliferative/antigrowth assay. The procedure, abridged:
(§1)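 Cells seeded 24 h before exposure to seven concentrations (100 µM to 0.0064 µM) for 48 h at 37 °C. Growth by TCA fixation and SRB staining, absorbance 515–564 nm, relative to time-zero and untreated controls; GI50 from variable-slope sigmoidal fit, reported as greater/less than range limits when not reached.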

For another assay, the system named is MDA-MB231. The experiment in a line: SRB antiproliferative/antigrowth assay. The conditions noted are these: Homo sapiens, MDA-MB-231, 48 h, read-out: GI50 MB231. The procedure, abridged: as §1
The test system of another assay is MDA-MB468. The experiment in a line: SRB antiproliferative/antigrowth assay. The conditions noted are these: Homo sapiens, MDA-MB-468, 48 h, read-out: GI50 MB468. The procedure, abridged: as §1
The next assay deals with 184B5. The experiment in a line: SRB antiproliferative/antigrowth assay, non-cancer cells. The settings on record: Homo sapiens, 184B5, 48 h, read-out: GI50 184B5. An outline of the steps:
as §1

The next assay deals with MCF10A. Described as above. The procedure, abridged: as §1
The subject of assay [1] is MDA-MB231, MDA-MB468, MCF7 breast cancer cells; 184B5 and MCF10A non-cancer breast cells. The experiment in a line: SRB assay, panel of breast cancer and non-cancer breast cell lines. The conditions noted are these: judged from GI50 values of Table 1. The protocol: The antigrowth effects of 4-piperazinylquinoline sulfonyl analogs on human breast tumor cells was initially evaluated using MDA-MB468 (a PTEN defective, EGFR positive breast adenocarcioma), MDA-MB231 (p53 and pRB mutated, triple-negative breast carcinoma), and MCF7 (p53+/−, invasive ductal breast carcinoma) cell lines. In addition, the cytotoxicity of all the compounds was also evaluated with the 184B5 and MCF10A non-cancer immortalized breast epithelial cell lines, to determine if these newly synthesized compounds have differential cytotoxic effects on cancer and non-cancer cells. The panel of three breast cancer cell lines with different genetic back ground and the well-studied two non-cancer immortalized breast cell lines would provide insights into the efficacy and toxicity of the test compounds in the different genetic background and at different stages of tumor development. The dose response of each cell line was established by determining the number of viable cells after 48 h of continuous drug treatment against seven different concentrations (100 µM to 0.0064 µM) of each compound. The reading of sulphorodamine B (SRB) staining is known to accurately reflect the level of total cellular macromolecules/cell growth/proliferation[6],[23]. […] The data for CQ and cisplatin were included as references. […] The differences in the GI50 values may be attributable to such factors as the nature of the sulfonyl group and the halogen substitution on the 7th position of the 4-piperazinylquinoline ring system, and the genetic and biochemical background of the cell lines.
Antiproliferative/antigrowth effects were determined by a SRB-based protocol[6],[23]. For a typical screening experiment, 5,000–10,000 cells were inoculated into 100 µL medium per well of a 96-well microtiter plate as described previously. Briefly, after the inoculation, the microtiter plate was incubated at 37 °C, 5% CO2, 95% air and 100% relative humidity for 24 h, prior to addition of experimental drugs. Some of the sample wells were fixed with 25 µL of 50% tricholoroacetic acid (TCA) as a control of the cell population for each cell line at the time of drug addition (Tz). An aliquot of the frozen stock was thawed and diluted to a desired final maximum test-concentration with complete medium. Two to ten-fold serial dilutions were made to provide a total of seven drug concentrations (and a control [C]). Following addition of drugs, the culture plate was incubated for additional 48 h. Cells were fixed in situ by slowly adding 25 µL of ice-cold 50% (w/v) TCA (final concentration, 10% TCA), and were then incubated for 60 min at 4 °C. The supernatant was discarded, and the plate was washed five times with tap water, followed by air-dry. 50 µL of SRB solution at 0.4% (w/v) in 1% acetic acid was added to each well, and the plate was incubated for >30 min at room temperature. Unbound SRB was removed by five washes with tap water, followed by air-drying. The cells “stained” with SRB were solubilized with 10 mM trizma base, and the absorbance was read on an automated plate reader at a wavelength of 515–564 nm. The relative growth rate (%) was calculated for each of the compound concentrations according to the following formula: (Ti−Tz)/(C−Tz)×100
In the formula, time zero (Tz), control growth (C), and OD for different concentration of tested compounds (Ti). The GI50 for each compound was obtained from a non-linear Sigmoidal dose-response (variable slope) curve which is fitted by GraphPad Prism v.4.03 software. Values were calculated for each of these parameters if the level of activity was reached. However, if the effect was not reached or was exceeded, the value for that parameter was expressed as greater or less than the maximum or minimum concentration tested.

The next assay concerns NCI-60 cancer panel. Description: NCI-60 cancer panel screening. The settings on record: screening carried out by the USA National Cancer Institute. The protocol: Therefore, we examined its effects on several cellular and molecular biological aspects to gain a better understanding about its mode of function. […]
compound 13 show s effective grow th inhibition on a w ide range of cancers. Screening of compound 13 with the NCI-60 cancer panel was carried out by the USA National Cancer Institute.
(1 picture or pasted object on this page, not shown here)

Assay [2] deals with MCF7 cells. The experiment in a line: LysoTracker Red staining of lysosomal volume. The settings on record: 5 μM, 48 h. Here is the method:
Since the structure of compound 13 contains the main scaffold of CQ, we examined whether cells treated with compound 13 also results an increase in the lysosomal volume.
Figure 7 Lysosomal volumes are increased in MCF7 cells treated with compound 13. Lysomes were visualized by treating MCF7 cells with lysoTracker Red for 48 h in the absence (Sham) or presence of 5 μM compound 13. The nuclei of cells in rows a and c were visualized by staining with DRAQ5. Note that rows a, c and e are enlarged images.
LysoTracker Red sDND-99 staining was carried out as recommended by the manufacturer (Molecular Probes, Eugene, OR). Briefly, cells grown on a cover slip were incubated in 50 nM LysoTracker Red DND-99 in serum-free RPMI-1640 medium for 30 min and then rinsed once with serum-free medium. The cells were washed three times with ice-cold medium, incubated in fresh medium for 45 min at 37 °C, and then washed once with fresh medium. Subsequently, the cells were examined by fluorescence microscopy using two filters (for green and red images) sequentially. Merging the two color images was done using Northern Eclipse software.

Assay [3] relates to MCF7 cells. The experiment in a line: Cell killing by flow cytometry, asynchronous cells. The settings on record: 2.7 μM, 48 h.
Method: Asynchronous MCF7 cells were incubated for 48 h in the absence (Sham control) or presence of compound 13 at 2.7 or 8.0 µM.
Cells (2.0 × 10^6) were harvested by centrifugation at 1,000 rpm on a bench-top centrifuge for 5 min, followed by fixation with ice-cold ethanol (70%) for 30 min to overnight at −20 °C[13]. The ethanol was then removed by centrifugation, and cells were resuspended in 1 × PBS solution, followed by centrifuge. The cell pellet was than stained with propidium iodide (PI) master mix (100 μg/mL RNase A, 100 μg/mL PI, 0.3% Nonidet P-40 and 0.1% sodium citrate in distilled water) for 30 min at 37 °C. DNA content was measured using a Beckmann Coulter Cytomics FC500 (Beckman Coulter, Fullerton, CA), and the proportion of cell populations in G0/G1, S, and G2/M phases of cell cycle was calculated on the basis of DNA distribution histograms using CXP software.
Another assay deals with HeLa. The experiment in a line: Combination with bortezomib, cell death. The settings on record: 48 h post-treatment; BTZ 6 nM, compound 13 0.75 µM, alone or combined.

Each structure is given as a SMILES string. “Also recorded” adds a separate entry of the source.

As a reminder, the GI50 is the concentration that inhibits growth by half. In the case of `O=[N+]([O-])c1ccc(S(=O)(=O)N2CCN(c3ccnc4cc(Cl)ccc34)CC2)c([N+](=O)[O-])c1` [Compound 13, 7-Chloro-4-(4-(2,4-dinitrophenylsulfonyl)piperazin-1-yl)quinoline], the GI50 turned out to be 2.3 ± 0.1 µM with MCF7 (Homo sapiens, MCF7, 48 h, read-out: GI50 MCF7); 3.4 ± 0.1 µM with MDA-MB231; 0.7 ± 0.1 µM in the assay with MDA-MB468; 9 ± 0.1 µM in the assay with 184B5; 12.3 ± 0.1 µM in the assay with MCF10A (Homo sapiens, MCF-10A, 48 h, read-out: GI50 MCF10A). Also, in the assay with MCF7 (ratio of GI50 values), the “more effective than cisplatin (MCF7)” value worked out at 11.1 fold. Besides, the “higher concentration required for the same GI50 against non-cancer than cancer cells” value with MCF10A (MDA-MB468 vs MCF10A) is on record as “up to 17.6 fold”. For the same compound, in [1], the “preferential antigrowth effect on cancer versus non-cancer cells (in words)” value is “effective and preferential antigrowth effects on cancer cells; also recorded: stronger antigrowth/antiproliferation activity against cancer cells than non-cancer cells”. Besides, the “growth inhibition in NCI-60 cancer panel (in words)” value in the assay on NCI-60 cancer panel is recorded as “effective on many different human cancers”. Further, in the assay with MCF7 cells [2], the lysosomal volume entry was “substantial increase in lysosomal volume”. Further, in the assay on MCF7 cells [3], the cell killing result is “effectively killed MCF7 cells”. The cell death entry with HeLa is “neither 6 nM BTZ nor 0.75 µM of compound 13 resulted in substantial HeLa cell death”.

The record behind these values is article PMC6474902, “Examination of novel 4-aminoquinoline derivatives designed and synthesized by a hybrid pharmacophore approach to enhance their anticancer activities” (Scientific Reports, 2019).
